Usually IC50 stands for the midpoint of a concentration-inhibition curve. By inhibition is commonly meant the percentage by which the read-out fell short of the control.

Where only a bound is given, the exact number is not on record here.

The nature of data set [1]: Permeability on Caco-2 cells monolayers. It counts as in vitro ADME. The settings on record: human, with Elacridar 10 µM (PgP inhibitor), Papp A>B with PgP inhibitor Elacridar, 10 μM compound, read-out: Passive Permeability.
Data set [2] has as its target human recombinant LPA1 expressed in CHO cells (Homo sapiens (Human), UniProt Q92633). In words: LPA1 antagonist FLIPR calcium assay in CHO-hLPA1 cells. In kind it is cell-based. The settings on record: range of activity; CHO-hLPA1, LPA EC80, Ca2+ mobilization; read-out: LPA1 IC50. Summed up: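 CHO cells expressing human LPA1 loaded with Cal-520 AM (5 μM, with 2.5 mM probenecid) 30 min at 37 °C. Baseline-subtracted peak fluorescence on FLIPR converted to % inhibition; pIC50 from four-parameter logistic fit.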

Data set [3] has as its target BSEP (Homo sapiens (Human), UniProt O95342). In words: BSEP inhibition: biliary clearance of Taurocolic Acid in sandwich-cultured human hepatocytes. It counts as in vitro ADME. As to conditions: sandwich-cultured cryopreserved human hepatocytes, probe Taurocolic Acid (TCA); 50 μM test compound, 10 μM TCA, human hepatocytes sandwich configuration. The procedure, abridged: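 Cryopreserved human hepatocytes were sandwich-cultured between collagen layers for 5 days, then incubated for 10 min at 37 °C in HBSS+ with 10 μM taurocholic acid, with or without 50 μM test compound. Bile content was released with Ca2+/Mg2+-free HBSS and quantified by HPLC-MS/MS. Inhibition is the percent reduction in TCA biliary clearance.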

BSEP, sequence (O95342 whole entry): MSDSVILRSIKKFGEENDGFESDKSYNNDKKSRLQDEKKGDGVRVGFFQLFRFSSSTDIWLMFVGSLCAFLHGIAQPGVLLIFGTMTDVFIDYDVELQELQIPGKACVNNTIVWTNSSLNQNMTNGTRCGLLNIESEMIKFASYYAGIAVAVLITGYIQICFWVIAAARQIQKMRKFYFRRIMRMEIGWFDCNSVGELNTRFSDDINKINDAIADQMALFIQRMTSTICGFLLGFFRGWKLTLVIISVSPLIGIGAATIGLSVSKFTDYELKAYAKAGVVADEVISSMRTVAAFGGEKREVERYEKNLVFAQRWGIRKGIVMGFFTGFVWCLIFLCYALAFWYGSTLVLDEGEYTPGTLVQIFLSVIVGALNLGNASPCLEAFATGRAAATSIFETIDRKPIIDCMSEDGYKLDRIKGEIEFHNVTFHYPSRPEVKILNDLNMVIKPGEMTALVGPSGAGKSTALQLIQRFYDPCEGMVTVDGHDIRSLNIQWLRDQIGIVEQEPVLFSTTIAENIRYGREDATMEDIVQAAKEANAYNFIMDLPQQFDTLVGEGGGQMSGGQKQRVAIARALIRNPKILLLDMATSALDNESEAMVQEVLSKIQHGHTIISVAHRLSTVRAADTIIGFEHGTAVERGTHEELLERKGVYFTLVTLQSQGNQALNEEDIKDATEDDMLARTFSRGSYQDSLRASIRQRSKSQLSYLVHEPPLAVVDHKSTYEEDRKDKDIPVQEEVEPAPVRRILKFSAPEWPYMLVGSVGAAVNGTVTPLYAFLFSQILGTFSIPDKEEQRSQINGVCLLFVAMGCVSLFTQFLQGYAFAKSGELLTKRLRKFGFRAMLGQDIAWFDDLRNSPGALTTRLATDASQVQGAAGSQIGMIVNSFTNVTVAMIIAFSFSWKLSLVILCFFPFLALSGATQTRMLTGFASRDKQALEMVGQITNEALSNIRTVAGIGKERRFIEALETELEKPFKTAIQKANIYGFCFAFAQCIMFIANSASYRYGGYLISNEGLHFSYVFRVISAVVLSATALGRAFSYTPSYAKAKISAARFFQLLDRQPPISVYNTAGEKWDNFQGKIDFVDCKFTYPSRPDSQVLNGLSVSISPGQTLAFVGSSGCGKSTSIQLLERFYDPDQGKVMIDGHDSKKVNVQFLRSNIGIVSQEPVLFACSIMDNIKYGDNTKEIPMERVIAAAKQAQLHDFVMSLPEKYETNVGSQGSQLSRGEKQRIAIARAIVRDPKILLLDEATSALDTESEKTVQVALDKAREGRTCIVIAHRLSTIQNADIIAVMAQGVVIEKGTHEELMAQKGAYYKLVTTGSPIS
human recombinant LPA1 expressed in CHO cells, sequence (Q92633 whole entry): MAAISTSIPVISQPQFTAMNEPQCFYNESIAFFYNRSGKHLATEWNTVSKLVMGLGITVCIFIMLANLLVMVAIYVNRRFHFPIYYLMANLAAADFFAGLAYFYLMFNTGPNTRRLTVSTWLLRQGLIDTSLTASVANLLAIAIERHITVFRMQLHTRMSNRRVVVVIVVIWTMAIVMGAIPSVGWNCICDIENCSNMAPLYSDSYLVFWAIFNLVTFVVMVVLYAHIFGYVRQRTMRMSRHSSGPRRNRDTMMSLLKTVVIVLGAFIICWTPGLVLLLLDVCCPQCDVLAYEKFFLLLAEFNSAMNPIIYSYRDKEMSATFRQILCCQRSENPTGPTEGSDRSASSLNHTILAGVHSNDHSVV

For the compound `Cc1nc(-c2onc(C)c2NC(=O)O[C@H](C)C2CCCC2)ccc1NC(=O)[C@H]1CCCC[C@@H]1C(=O)O` [Example 26, (1S,2S)-2-((6-(4-((((R)-1-cyclopentylethoxy)carbonyl)amino)-3-methylisoxazol-5-y1)-2-methylpyridin-3-yl)carbamoy1)cyclohexane-1-carboxylic acid], in data set [1], the Papp at 120 min, 10 µM is no less than 1.5 ×10⁻⁶ cm/s. Also, in data set [2], the IC50 was less than 50 nM. Also, the inhibition at 10 min, 50 μM in data set [3] is no more than 50%.
The corresponding values for `Cc1nc(-c2onc(C)c2NC(=O)O[C@H](C)c2ccccc2F)ccc1NC(=O)[C@H]1CCCC[C@@H]1C(=O)O` [Example 24, (1S,2S)-2-((6-(4-((((R)-1-(2-fluorophenyl)ethoxy)carbonyl)amino)-3-methylisoxazol-5-yl)-2-methylpyridin-3-yl)carbamoyl)cyclohexane-1-carboxylic acid] are no less than 1.5 ×10⁻⁶ cm/s, less than 50 nM and no more than 50%.
